Results as given in EP0100158A2, “(3-pyridinyl)heteroalkarylalkanols, alkanoic acids and esters” (THE UPJOHN COMPANY, priority 1982, dated 1984).

Biological target: T1, TXA2 synthetase (Homo sapiens, UniProt P24557)
T1 construct: generated by mixing prostaglandin H2 (PGH2) with human platelet microsomes (HPM); from tissue; host or cells: human platelet microsomes
T1 sequence (P24557 1-533): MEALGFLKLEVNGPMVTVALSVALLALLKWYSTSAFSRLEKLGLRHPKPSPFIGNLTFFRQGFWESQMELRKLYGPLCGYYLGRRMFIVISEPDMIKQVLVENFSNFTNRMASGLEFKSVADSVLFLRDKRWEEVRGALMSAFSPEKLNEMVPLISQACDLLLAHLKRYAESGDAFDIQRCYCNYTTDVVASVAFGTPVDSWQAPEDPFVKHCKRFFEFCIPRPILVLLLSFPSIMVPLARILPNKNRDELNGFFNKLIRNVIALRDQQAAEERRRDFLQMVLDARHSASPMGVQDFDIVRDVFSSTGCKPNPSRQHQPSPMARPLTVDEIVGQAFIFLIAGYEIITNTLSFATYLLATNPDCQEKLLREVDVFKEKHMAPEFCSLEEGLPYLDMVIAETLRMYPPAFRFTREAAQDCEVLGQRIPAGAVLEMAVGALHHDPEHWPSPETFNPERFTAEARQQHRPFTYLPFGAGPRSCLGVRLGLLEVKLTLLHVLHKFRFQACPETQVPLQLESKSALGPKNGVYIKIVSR
Test: TXA2 inhibition test: TXA2 generated from PGH2 with human platelet microsomes, response measured on superfused rabbit aortic strips
Assay type: biochemical
Conditions: inhibition of TXA2 formation; test compound added to human platelet microsomes 5 minutes before mixing with PGH2; rabbit aorta readout; read-out: approximate ED50's (converted)
Experimental: The compounds of the present invention were tested for TXAz inhibition as follows: • Rabbit aortic strips were superfused in series with Krebs solution. Thromboxane Az (TXA2) was generated by mixing prostaglandin H2 (PGH2) with human platelet microsomes (HPM).
Potential inhibitors were tested by comparing the response of the rabbit aorta to the amount of TXAz produced by mixing PGH2 and HPM without the test compound in the reaction medium and then the amount of TXAz produced when the test compound was added to the HPM 5 minutes before the HPM was mixed with PGH2.

## O=C(O)c1cc(CNc2cccnc2)ccc1O
  IC50: ~37.6 nM
